Experimental data reported in patent publication US20150174207A1, “METHODS FOR TREATING CANCER WITH GHRH AGONISTS” (UNIVERSITY OF MIAMI, priority 2013, published 2015).
“Also recorded” adds a separate entry of the source. Marks after values point to notes of the source that are not given here. [ ]: non-standard residue; d: D form. The star is where a group is joined. Desaminotyrosyl = O=C(CCc1ccc(O)cc1)*; Agmatine = N=C(N)NCCCCN*; Nle = CCCC[C@H](N)C(=O)O; Orn = NCCC[C@H](N)C(=O)O; Abu = CC[C@H](N)C(=O)O

Key:
[1] = test system: U-87 MG, human GBM tumors; assay: Growth of U-87 MG glioblastoma xenografts in nude mice; type: in vivo; conditions: U-87 MG xenografts in nude mice, 6 wk; JI-34 50 μg/kg/d s.c., DOX 13 μmol/kg/wk i.v.; vs. control
Procedure: (§1) Six-wk-old nude mice (Ncr nu/nu) were obtained from the National Cancer Institute (Bethesda, Md.). The animals were housed in sterile cages in a temperature-controlled room with a 12-h light/12-h dark schedule and were fed with autoclaved chow and water, ad libitum. The Institutional Animal Care and Use Committee, VA Medical Center Miami, Fla. fully approved the animal protocols. For the therapy study, 10^6 cells per mouse of the human glioblastoma cell line, U-87 MG (American Type Culture Collection, ATCC), were injected into the flanks of four nude mice (Ncr nu/nu) under isoflurane anesthesia (Baxter). A month later, the resulting tumors were harvested and minced into ˜3 mm^3 pieces and transplanted into flanks of nude mice, under anesthesia, using a minitrocar. When the tumors reached ˜32 mm^3, the mice were randomized into four groups. […] Tumor volume was measured with microcalipers once a week and calculated using the formula: (length×width×height×in)/6. Tumor doubling time was calculated using the formula: [study duration×logarithm (LOG) 2]/(LOG final tumor volume−LOG initial tumor volume). […]

U-87 MG cells [2] = assay: MTT proliferation assay in vitro; type: cell-based, human; conditions: JI-34 1 μM, DOX 100 nM; combination: 24 h JI-34 pretreatment, then DOX+JI-34 48 h
Procedure: For proliferation studies, 104 cells per well were seeded in 100 μL media, in a 96-well plate, and incubated for 24 h in a humidified incubator at 37° C. Then, culture medium was replaced with FBSfree medium (starvation) for 24 h. After 24 h, the cells received full medium containing the following treatments: Groups 1 (control) and 3, vehicle solution; groups 2 and 4, JI-34 (1 μM final concentration). After another 24 h, the cells received the following treatments: group 1, vehicle solution; group 2, JI-34; group 3, DOX (100 nM final concentration); and group 4, JI-34+DOX. Then, they were incubated for 48 h and the effect on cell proliferation was evaluated by using the MTT assay (CellTiter 96 Non-Radioactive Cell Proliferation Assay; Promega), according to the manufacturer's instructions with the help of a Victor3 multilabel counter (Perkin-Elmer).

U-87 MG cells [3] = assay: Cell counting after repeated exposure for 3 wk (Coulter Counter); type: cell-based, human; conditions: repeated exposure 3 wk, 1 μM JI-34 daily, DOX weekly at 100 nM; vs. control
Procedure: (§2) U-87 MG cells were cultured in Eagle's minimum essential medium (ATCC) medium [supplemented with 10% FBS (ATCC) and 0.1% penicillin/streptomycin] at 37° C. and 5% CO2 atmosphere. For cell count and cell size determination, […] were seeded into T-25 flasks. The medium was changed two to three times a week. The following treatment in vitro groups were set up: (Group 1) control, vehicle solution; (group 2) JI-34 at 1 μM final concentration, daily; (group 3) DOX at 100 nM final concentration, weekly on Thursdays; and (group 4) JI-34, 1 μM and DOX, 100 nM. After 3 wk, cell count and cell size were determined by Z Series Coulter Counter (Beckman Coulter).

U-87 MG cells [4] = assay: Cell volume determination (intracellular water space, 3-OMG); type: cell-based, human; conditions: repeated exposure 3 wk, 1 μM JI-34 daily, DOX weekly at 100 nM; vs. control
Procedure: as §2
Cell volume was estimated by measuring the intracellular water space as follows. Briefly, 1 mM 3-O-methylglucose (3-OMG) and 0.5 μCi/mL [3H]-3-OMG were added to the culture 6 h before the volume assay. At the end of the incubation period, culture medium was aspirated, and an aliquot was saved for radioactivity determination. […] Radioactivity in the cell extracts and media was determined, and an aliquot of the cell extract was used for protein estimation with the Bio-Rad bicinchoninic acid kit. Values were normalized to protein level, and cell volume was expressed as microliters/milligram protein.

U-87 cell-derived tumors = assay: Human Cancer PathwayFinder quantitative PCR array of dissected tumor samples; type: in vivo, nude mice; conditions: tumors after 6 wk treatment; fold change (ΔΔCt) vs. control
Procedure: as §1
Total RNA was isolated from representative, DNase treated, U-87 MG dissected tumor samples using a NucleoSpin kit according to the manufacturer's instructions (Macherey-Nagel). Four tumor samples from each group were analyzed. The yield and the quality of RNA samples were determined spectrophotometrically using 260 nm, and 260/280- and 260/230-nm ratio. […]
The Human Cancer PathwayFinder quantitative PCR array (PAHS-033A; Qiagen) used in our study contains 84 unique genes related to cell proliferation, apoptosis, cell cycle, angiogenesis, invasion, and metastasis. […] Fold changes in gene expression were calculated using the ΔΔCt method and five stably expressed housekeeping genes (B2M, HPRT1, RPL13A, GAPDH, and ACTB) were used for normalization of the results.

U-87 MG cells [5] = assay: ApoLive-Glo Multiplex assay (viability and apoptosis); type: cell-based, human; conditions: JI-34 1 μM, DOX 100 nM, after 24 h of treatment
Procedure: Determinations of viability and apoptosis were performed from freshly seeded cell samples (10^4 cells per well, in 100 μL media, in a 96-well plate) with the help of ApoLive-Glo Multiplex Assay (Promega), according to the manufacturer's instructions. First the cells received full medium containing the following treatments: Groups 1 (control) and 3, vehicle solution; groups 2 and 4, JI-34 (1 μM final concentration). After 24 h, the cells received the following treatments: group 1, (vehicle solution); group 2, JI-34; group 3, DOX (100 nM final concentration); and group 4, JI-34+DOX. After another 24 h of incubation, viability reagent was added to the wells and fluorescence was measured by Victor3 multilabel counter. Then Caspase-Glo 3/7 apoptosis reagent was added and luminescence was determined.

U-87 MG cells [6] = assay: Multidrug resistance (MDR) assay, calcein retention; type: cell-based, human; conditions: JI-34 1 μM pretreatment 24 h, DOX 100 nM, cyclosporin-A 1/1,000 dilution; 1 h; vs. control
Procedure: The multidrug resistance assays were performed according to the manufacturer's instructions (Cayman Chemical). U-87 MG cells were seeded, 5×10^4 cells per well density in 100 μL medium in 96-well, black, clear-bottom plates and grown overnight in a humidified incubator at 37° C. […] Afterward, the cells were incubated for 1 h, then calcein AM/Hoechst dye combined staining solution was added. Fifteen minutes later, both cell density (at excitation and emission wavelengths of 355 nm and 465 nm, respectively) and calcein retention (at excitation and emission wavelengths of 485 nm and 535 nm, respectively) were detected with the help of a Victor3 multilabel counter. Relative calcein retention values were expressed as a function of cell density.

U-87 MG xenografts = assay: Western blot of necropsied in vivo tumor samples; design: species or system nude mice; conditions: xenograft samples after 6 wk treatment
Procedure: Six-wk-old nude mice (Ncr nu/nu) were obtained from the National Cancer Institute (Bethesda, Md.). The animals were housed in sterile cages in a temperature-controlled room with a 12-h light/12-h dark schedule and were fed with autoclaved chow and water, ad libitum. The Institutional Animal Care and Use Committee, VA Medical Center Miami, Fla. fully approved the animal protocols. For the therapy study, 10^6 cells per mouse of the human glioblastoma cell line, U-87 MG (American Type Culture Collection, ATCC), were injected into the flanks of four nude mice (Ncr nu/nu) under isoflurane anesthesia (Baxter). A month later, the resulting tumors were harvested and minced into ˜3 mm^3 pieces and transplanted into flanks of nude mice, under anesthesia, using a minitrocar. When the tumors reached ˜32 mm^3, the mice were randomized into four groups. The animals received the following treatments for 6 wk: (Group 1) control, 16 tumors, vehicle solution; (group 2) agonist JI-34, 1 μg/20 g, s.c., daily, 19 tumors; (group 3) DOX, 260 nmol/20 g, i.v., weekly on Thursdays, 19 tumors; and (group 4) JI-34 (1 μg/20 g daily)+DOX (260 nmol/20 g), 16 tumors. Tumor volume was measured with microcalipers once a week and calculated using the formula: (length×width×height×in)/6. Tumor doubling time was calculated using the formula: [study duration×logarithm (LOG) 2]/(LOG final tumor volume−LOG initial tumor volume). At the end of the experiment, the mice were killed under pentobarbital anesthesia, tumors were excised and weighed; necropsy was performed. Samples free of necrotic debris were immediately snap frozen in liquid nitrogen and stored at −80° C. for further analyses.
Protein from the tumor tissue was isolated using the NucleoSpin kit (Macherey-Nagel). Protein concentrations were determined by NanoDrop (NanoDrop Technologies). Equal amounts of protein were resuspended in sample loading buffer (0.25 M Trizma Base, 8% SDS, 40% glycerol, 0.004% bromophenol blue, 4% P3-mercaptoethanol; pH 6.8), boiled for 3 min and separated by 12% SDS-polyacrylamide gel electrophoresis. Proteins from the gel were then transferred onto nitrocellulose membranes, which were blocked with 50-50% Tris-buffered saline (20 mM Tris.HCl pH 7.5, 150 mM NaCl) and Odyssey blocking buffer for 1 h at room temperature, followed by an overnight incubation at 4° C. with the following primary antibodies: growth hormone-releasing hormone receptor (GHRH-R), (ab28692) nestin (ab92391), glial fibrillary acid protein (GFAP) (ab48050) (all from AbCam), β-actin (A5441; Sigma-Aldrich), or p53 (9282; Cell Signaling Technology). […] The protein bands were quantified using […] (LI-COR Biosciences); integrated density values of triplicate experiments were plotted.

U-87 MG cells [7] = assay: ELISA of p53, FGF basic and TGFβ; type: cell-based, human; conditions: cell culture supernatant, 1 μM JI-34; vs. control
Procedure: Glioblastoma cells (10^5 cells per well) were seeded onto six-well plates, cultured overnight, and then exposed to compounds used in the 3-(4,5-dimethylthiazol-2-yl)-2,5-diphenyltetrazolium bromide proliferation assays: Groups 1 (control) and 3, vehicle solution; groups 2 and 4, GHRH agonists JI-34 (1 μM final concentration). After another 24 h, the cells received the following treatments: Group 1, vehicle solution; group 2, JI-34; group 3, doxorubicin (DOX) (100 nM final concentration); and group 4, JI-34+DOX. Concentrations of the specific proteins in the medium (in the case of FGF basic or TGFβ-1) or in samples of scraped and homogenized cells (in the case of p53) were determined after 24 h using ELISA kits according to the manufacturer's instructions. Human TGFβ and FGF basic ELISA kits were obtained from AbCam, whereas p53 was measured with a PathScan Sandwich ELISA kit (Cell Signaling Technology). Readings were normalized to protein concentrations as determined by NanoDrop (NanoDrop Technologies).

U-87 MG cells [8] = assay: Immunocytochemistry / differentiation in reduced serum-containing medium; type: cell-based, human; conditions: JI-34 1 μM, 0.1% FBS-containing medium, 2 d; vs. DMSO control
Procedure: Cells were seeded onto coverslips in six-well plates (50,000 cells per well) in 10% FBS-containing growth medium. This medium was replaced with serum-free medium the following day for 24 h. Thereafter, GHRH agonist (JI-34, 1 μM) was added in medium supplemented with 0.1% FBS and remained for the consecutive 2 d. Control cells received vehicle (DMSO). At the end of the treatment, phase-contrast images of live cells were collected and cells were fixed in ice-cold acetone for 10 min, washed with PBS three times, and blocked with 2% goat serum in PBS for 30 min. GFAP (Abcam; 1:500 dilution) or nestin (BD Transduction Laboratories; 1:75 dilution) antibodies were added in PBS for 1 h. Anti-rabbit and anti-mouse secondary antibodies (Alexa Fluor 488; Jackson Immunoresearch) were also applied for 1 h. Coverslips were mounted in Vectashield mounting medium containing DAPI for nuclear staining (Vector Laboratories). Images were acquired on a Nikon Eclipse Ti fluorescence microscope (Nikon Instruments).

## COc1cccc2c1C(=O)c1c(O)c3c(c(O)c1C2=O)C[C@@](O)(C(=O)CO)C[C@@H]3O[C@H]1C[C@H](N)[C@H](O)[C@H](C)O1 [DOX, doxorubicin]
[1]
  inhibition of tumor growth: 35%
U-87 MG cells [2]
  inhibitory effect on proliferation (MTT): no significant effect
U-87 MG cells [3]
  decrease in the number of cells: 52%
U-87 MG cells [4]
  decrease in the volume of the cells (intracellular water content): 20%
U-87 cell-derived tumors
  Relative expression of B-cell lymphoma 2 (Bcl-2): −1.8*
  Relative expression of Integrin α3 (CD49C): −1.65*
  Relative expression of S100 calcium binding protein A4 (S100-A4): −2.34*
U-87 MG cells [5]
  increase in apoptosis: 182%
U-87 MG cells [6]
  increase in calcein retention: 7%
U-87 MG xenografts
  expression of GFAP: decrease
  expression of the neuroectodermal stem-cell marker nestin: increased

## [Dat^1, Orn^12, Abu^15, Orn^21, Nle^27, Asp^28, Agm^29]hGHRH(1-29)NH2 ([Desaminotyrosyl]ADAIFTNSYR[Orn]VL[Abu]QLSAR[Orn]LLQDI[Nle]D[Agmatine]-NH2) [JI-34]
U-87 MG cells [2]
  inhibitory effect on proliferation (MTT): no significant effect
U-87 MG cells [3]
  decrease in the number of cells: no significant effect
U-87 MG cells [5]
  increase in apoptosis: no effect
U-87 MG cells [7]
  decrease in level of TGFβ: 24%
  decrease in level of bFGF: 37%
U-87 MG xenografts
  expression of the neuroectodermal stem-cell marker nestin: decreased
U-87 MG xenografts; compared with the control
  increase in GFAP expression (integrated density values): 70%
U-87 MG cells [8]
  GFAP labeling (immunofluorescence): high levels of GFAP were detected; also recorded: elevation in the intensity of GFAP-labeling
  nestin level (immunofluorescence): did not change notably; also recorded: did not show a significant change
